Measurements taken from US20250179047A1, “5-[7-(3,4-DIHYDRO-1H-ISOQUINOLINE-2-CARBONYL)-1,2,3,4 TETRAHYDROISOQUINOLIN-6-YL]-1H-PYRROLE-3-CARBOXAMIDE DERIVATIVES, PHARMACEUTICAL COMPOSITIONS CONTAINING THEM AND THEIR USES AS PRO-APOPTOTIC AGENTS” (LES LABORATOIRES SERVIER, priority 2022, published 2025).

Columns and labels:
BCLXL WT = BCLXL WT (Homo sapiens (Human), UniProt Q07817); experiment: TR-FRET competitive binding assay, BCLXL WT; conditions: for Ki: BCLXL WT, Ki determined from IC50, read-out: TR_FRET EKI BclxL; for TR_FRET EKI BCLxL/WT selectivty ratio: ratio Ki BCLxL / Ki BCL2 WT
Procedure, shortened: (§1)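 Competitive TR-FRET displacement of fluorescein-PUMA peptide (2 or 20 nM) from 0.5 nM terbium-labelled N-terminal Halo-fusion BCL2 (1-207, wild type or mutant) or BCLXL (2-196), expressed in E. coli. Buffer 50 mM Hepes pH 7.5, 150 mM NaCl, 5% DMSO; 2 h at 23°C. 520/495 nm ratio fitted over 11 points for IC50, converted to Ki.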

KMS-12-PE Bcl-2 G101V = experiment: In vitro cytotoxicity CellTiter-Glo 48 h, KMS-12-PE Bcl-2 G101V; type: cell-based; conditions: for Ratio (G101V/WT): C50 KMS-12-PE Bcl-2 G101V over C50 KMS-12-PE Bcl-2 WT; for IC50: Homo sapiens, KMS-12-PE, 48 h, CellTiter-Glo, C50 = concentration needed to reach 50% of the cellular viability
Procedure, shortened: (§2)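 KMS-12-PE myeloma cells lentivirally transduced with Bcl-2 WT or G101V (TagRFP-sorted), exposed to compound 11-point dose-response for 48 h at 37 °C, 5% CO2. Viability read by CellTiter-Glo ATP luminescence; C50 is the concentration giving 50% cellular viability.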

BCL2 D111A = BCL2 D111A (Homo sapiens, UniProt P10415, D111A); experiment: TR-FRET competitive binding assay, BCL2 D111A; conditions: Ki determined from IC50, read-out: TR_FRET EKI_Bcl2 D111A
Procedure: The relative binding potency of each compound was determined in a competitive binding assay using time resolved-fluorescence resonance energy transfer (TR-FRET). The method utilised a fluorescein labelled peptide derived from PUMA (5Flu-Ahx-[…]-NH2 wherein Ahx means 6-hexanoic acid monomer and the amino acid sequence is referred to as SEQ ID:01) which binds to a terbium labelled BCL2 or BCLXL protein. The degree of binding or corresponding compound inhibition can be quantified by the TR-FRET signal between the terbium donor and fluorescein acceptor.
The human BCL2_wild-type (also named BCL2_wt), BCL2_G101V mutant and BCLXL_wild-type were E. coli expressed as a N-terminal Halo-fusion proteins and singly labelled with Terbium on the Halo protein to afford the following amino acid sequences:
wherein the BCL2(1-207) sequence corresponds to UniProtKB® primary accession number P10415 and the BCLXL(2-196) sequence corresponds to UniProtKB® primary accession number Q07817-1.
The assay was performed in a 40 μL volume in white 384-standard well plates (Corning #3574). An 11-point serial dilution of each compound was prepared in DMSO and transferred directly to plate followed by addition of fluorescein labelled peptide and lastly protein. Final assay conditions were 0.5 nM BCL2_wt, BCL2_G101V, BCL2_D103Y, BCL2_F104I, BCL2_D111A or BCLXL_wt, 2 or 20 nM fluorescein labelled peptide, 50 mM Hepes pH 7.5, 150 mM NaCl, 0.5 mM TCEP (Tris(2-carboxyethyl)phosphine), 0.05% Tween 20, 5% DMSO. The mixture was incubated for 2 hours at 23° C.
TR-FRET measurements were performed on a Biotek Synergy Neo plate reader. TR-FRET was measured by excitation of the Terbium-donor at 340 nm and subsequent (delay time 100 μs) measurement of terbium and fluorescein emission at 495 nm and 520 nm, respectively, over a collection time of 300 μs. The TR-FRET signal was calculated as the emission-ratio at 520 nm over 495 nm.
The TR-FRET ratio readout for test compounds was normalized against 0% inhibition controls wells and 100% inhibition control wells. Test compound potency (IC50) was estimated by nonlinear regression using the sigmoidal dose-response (variable slope) using Xlfit 4 (IDBS, Guildford, Surrey, UK, model 205). Were the IC50 could not be determined the % inhibition at the highest tested concentration is given.
y=(A+((B−A)/(1+((C/x)^D))))
where y is the normalized TR-TRET ratio measurement for a given concentration of test compound, x is the concentration of test compound, A is the estimated efficacy (% inhibition) at infinite compound dilution, and B is the maximal efficacy (% inhibition). C is the IC50 value and D is the Hill slope coefficient.
The K1 values were determined from the IC50 values according to Cer et al, Nucleic Acids Res, 2009, July 1; 37 (WebServer issue): W441-W445.

BCL2 F104I = BCL2 F104I (Homo sapiens, UniProt P10415, F104I); experiment: TR-FRET competitive binding assay, BCL2 F104I; conditions: Ki determined from IC50, read-out: TR_FRET EKI_Bcl2 F104I
Procedure, shortened: as §1

KMS-12-PE Bcl-2 WT = experiment: In vitro cytotoxicity CellTiter-Glo 48 h, KMS-12-PE Bcl-2 WT; type: cell-based; conditions: Homo sapiens, KMS-12-PE, C50 = concentration needed to reach 50% of the cellular viability
Procedure, shortened: as §2

BCL2 D103Y = BCL2 D103Y (Homo sapiens, UniProt P10415, D103Y); experiment: TR-FRET competitive binding assay, BCL2 D103Y; conditions: Ki determined from IC50, read-out: TR_FRET EKI_Bcl2 D103Y
Procedure, shortened: as §1

BCL2 G101V [1] = target: BCL2 G101V (Homo sapiens, UniProt P10415, G101V); experiment: TR-FRET competitive binding assay, BCL2 G101V; conditions: BCL2 G101V; Ki determined from IC50; read-out: TR_FRET EKI_Bcl2 G101V
Procedure, shortened: as §1

BCL2 G101V [2] = experiment: TR-FRET competitive binding assay, BCL2 G101V; parameters: species or system human; conditions: ratio Ki BCL2 G101V / Ki BCL2 WT
Procedure, shortened: as §1

BCL2 WT = BCL2 WT (Homo sapiens (Human), UniProt P10415); experiment: TR-FRET competitive binding assay, BCL2 WT; conditions: Ki determined from IC50, read-out: TR_FRET EKI_Bcl2 WT
Procedure, shortened: as §1

Chain of BCLXL WT (Q07817 other isoform, or with tags, fused parts or gaps): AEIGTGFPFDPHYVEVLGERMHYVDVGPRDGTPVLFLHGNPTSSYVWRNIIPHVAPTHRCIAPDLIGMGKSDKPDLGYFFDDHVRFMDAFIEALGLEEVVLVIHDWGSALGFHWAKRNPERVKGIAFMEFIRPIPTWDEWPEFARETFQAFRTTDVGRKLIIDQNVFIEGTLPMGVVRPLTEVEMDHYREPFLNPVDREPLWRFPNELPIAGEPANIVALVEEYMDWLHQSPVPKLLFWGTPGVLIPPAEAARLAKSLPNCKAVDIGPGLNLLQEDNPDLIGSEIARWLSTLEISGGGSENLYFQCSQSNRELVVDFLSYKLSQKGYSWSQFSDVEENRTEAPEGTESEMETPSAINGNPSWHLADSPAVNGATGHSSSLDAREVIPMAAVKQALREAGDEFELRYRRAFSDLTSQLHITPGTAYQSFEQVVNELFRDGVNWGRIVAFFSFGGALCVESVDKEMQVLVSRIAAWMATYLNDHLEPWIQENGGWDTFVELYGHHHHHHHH

SMILES | Ki (BCLXL WT) | TR_FRET EKI BCLxL/WT selectivty ratio (BCLXL WT) | Ki (BCL2 D111A) | Ki (BCL2 F104I) | Ki (BCL2 D103Y) | Ki (BCL2 G101V [1]) | TR_FRET EKI G101V/WT selectivty ratio (BCL2 G101V [2]) | Ki (BCL2 WT) | Ratio (G101V/WT) (KMS-12-PE Bcl-2 G101V) | IC50 (KMS-12-PE Bcl-2 G101V) | IC50 (KMS-12-PE Bcl-2 WT)
Cc1c(N(C(=O)c2cc(-c3cc4c(cc3C(=O)N3Cc5ccccc5C[C@H]3C)CN(C(=O)Cc3ccc(CCN5CCOCC5)cc3)CC4)n(C)c2C)c2ccc(O)cc2)cc(C#N)n1C [Example 38, N-(5-cyano-1,2-dimethylpyrrol-3-yl)-N-(4-hydroxyphenyl)-1,2-dimethyl-5-(7-{[(3R)-3-methyl-3,4-dihydro-1H-isoquinolin-2-yl]carbonyl}-2-(2-{4-[2-(morpholin-4-yl)ethyl]phenyl}acetyl)-3,4-dihydro-1H-isoquinolin-6-yl)pyrrole-3-carboxamide] | 1 nM | 10.0 | 0.15 nM | 0.82 nM | 0.32 nM | 0.5 nM | 4.8 | 0.1 nM | 5.57 | 0.0509 µM | 0.0091 µM
Cc1c(N(C(=O)c2cc(-c3cc4c(cc3C(=O)N3Cc5ccccc5C[C@H]3C)CN(C(=O)Cc3ccc(OCCN5CCOCC5)cc3Cl)CC4)n(C)c2C)c2ccc(O)cc2)cc(C#N)n1C [Example 46, 5-[2-(2-{2-chloro-4-[2-(morpholin-4-yl)ethoxy]phenyl}acetyl)-7-[(3R)-3-methyl-1,2,3,4-tetrahydroisoquinoline-2-carbonyl]-1,2,3,4-tetrahydroisoquinolin-6-yl]-N-(5-cyano-1,2-dimethyl-1H-pyrrol-3-yl)-N-(4-hydroxyphenyl)-1,2-dimethyl-1H-pyrrole-3-carboxamide] | 1.5 nM | 10.7 | 0.2 nM | 0.35 nM | 0.23 nM | 0.3 nM | 2.4 | 0.14 nM | 5 | 0.0256 µM | 0.0051 µM
Cc1c(N(C(=O)c2cc(-c3cc4c(cc3C(=O)N3Cc5ccccc5C[C@H]3C)CN(C(=O)Cc3ccc(C5CCN(CC(F)F)CC5)cc3F)CC4)n(C)c2C)c2ccc(O)cc2)cc(C#N)n1C [Example 48, N-(5-cyano-1,2-dimethylpyrrol-3-yl)-5-[2-(2-{4-[1-(2,2-difluoroethyl)piperidin-4-yl]-2-fluorophenyl}acetyl)-7-{[(3R)-3-methyl-3,4-dihydro-1H-isoquinolin-2-yl]carbonyl}-3,4-dihydro-1H-isoquinolin-6-yl]-N-(4-hydroxyphenyl)-1,2-dimethylpyrrole-3-carboxamide] | 9.4 nM | 18.8 | 1.63 nM | 10.2 nM | 0.79 nM | 1.3 nM | 2.6 | 0.5 nM | 6.44 | 0.0268 µM | 0.0048 µM
Cc1c(N(C(=O)c2cc(-c3cc4c(cc3C(=O)N3Cc5ccccc5C[C@H]3C)CN(C(=O)Cc3ccc(OCCN5CCC(F)(F)C5)cc3)CC4)n(C)c2C)c2ccc(O)cc2)cc(C#N)n1C [Example 50, N-(5-cyano-1,2-dimethyl-1H-pyrrol-3-yl)-5-[2-(2-{4-[2-(3,3-difluoropyrrolidin-1-yl)ethoxy]phenyl}acetyl)-7-[(3R)-3-methyl-1,2,3,4-tetrahydroisoquinoline-2-carbonyl]-1,2,3,4-tetrahydroisoquinolin-6-yl]-N-(4-hydroxyphenyl)-1,2-dimethyl-1H-pyrrole-3-carboxamide] | 5.8 nM | 22.3 | 1.46 nM | 4.66 nM | 0.58 nM | 0.6 nM | 2.3 | 0.26 nM | 6.53 | 0.0341 µM | 0.0052 µM

Continued by falling Ki (BCLXL WT), values first:

Ki (BCLXL WT) | TR_FRET EKI BCLxL/WT selectivty ratio (BCLXL WT) | Ki (BCL2 D111A) | Ki (BCL2 F104I) | Ki (BCL2 D103Y) | Ki (BCL2 G101V [1]) | TR_FRET EKI G101V/WT selectivty ratio (BCL2 G101V [2]) | Ki (BCL2 WT) | SMILES | Ratio (G101V/WT) (KMS-12-PE Bcl-2 G101V) | IC50 (KMS-12-PE Bcl-2 G101V) | IC50 (KMS-12-PE Bcl-2 WT)
2.2 nM | 36.1 | 0.24 nM | 1.34 nM | 0.35 nM | 0.5 nM | 8.5 | 0.06 nM | Cc1c(N(C(=O)c2cc(-c3cc4c(cc3C(=O)N3Cc5ccccc5C[C@H]3CN3CCCCC3)CN(C(=O)Cc3ccc(Cl)cc3F)CC4)n(C)c2C)c2ccc(O)cc2)cc(C#N)n1C [Example 44, 5-{2-[2-(4-chloro-2-fluorophenyl)acetyl]-7-{[(3S)-3-(piperidin-1-ylmethyl)-3,4-dihydro-1H-isoquinolin-2-yl]carbonyl}-3,4-dihydro-1H-isoquinolin-6-yl}-N-(5-cyano-1,2-dimethylpyrrol-3-yl)-N-(4-hydroxyphenyl)-1,2-dimethylpyrrole-3-carboxamide] | 12.2 | 0.0886 µM | 0.0073 µM
2 nM | 18.9 | 0.16 nM | 0.46 nM | 0.24 nM | 0.2 nM | 2.0 | 0.11 nM | Cc1c(N(C(=O)c2cc(-c3cc4c(cc3C(=O)N3Cc5ccccc5C[C@H]3C)CN(C(=O)Cc3ccc(OCCN5CCN(CC(F)F)CC5)cc3)CC4)n(C)c2C)c2ccc(O)cc2)cc(C#N)n1C [Example 47, N-(5-cyano-1,2-dimethyl-1H-pyrrol-3-yl)-5-{2-[2-(4-{2-[4-(2,2-difluoroethyl)piperazin-1-yl]ethoxy}phenyl)acetyl]-7-[(3R)-3-methyl-1,2,3,4-tetrahydroisoquinoline-2-carbonyl]-1,2,3,4-tetrahydroisoquinolin-6-yl}-N-(4-hydroxyphenyl)-1,2-dimethyl-1H-pyrrole-3-carboxamide] | 4.5 | 0.0362 µM | 0.008 µM
1.7 nM | 34.7 | 0.21 nM | 0.47 nM | 0.15 nM | 0.2 nM | 4.1 | 0.05 nM | Cc1c(N(C(=O)c2cc(-c3cc4c(cc3C(=O)N3Cc5ccccc5C[C@H]3C)CN(C(=O)Cc3ccc(OCCN5CCO[C@@H](C)C5)cc3)CC4)n(C)c2C)c2ccc(O)cc2)cc(C#N)n1C [Example 57, N-(5-cyano-1,2-dimethyl-1H-pyrrol-3-yl)-N-(4-hydroxyphenyl)-1,2-dimethyl-5-{7-[(3R)-3-methyl-1,2,3,4-tetrahydroisoquinoline-2-carbonyl]-2-(2-{4-[2-((2S)-2-methylmorpholin-4-yl)ethoxy]phenyl}acetyl)-1,2,3,4-tetrahydroisoquinolin-6-yl}-1H-pyrrole-3-carboxamide] | 4.32 | 0.0208 µM | 0.0048 µM
